What all share (assay type): cell-based, mouse
Experiment [1] deals with BaF3-tel-PDGFRβ (stably expressing PDGFRβ kinase). Kind of experiment: Growth of BaF3-tel-PDGFRβ cells, Cell Titer-Glo, 72 h. An excerpt: (§1) In this example, mouse primary B cell BaF3 (purchased from ATCC, U.S.A.) was used. In addition, in this example, mouse BaF3-tel-PDGFRα (stably expressing PDGFRα kinase), mouse BaF3-tel-PDGFRβ (stably expressing PDGFRβ kinase), BaF3-P210 (stably expressing ABL kinase), BaF3-P210-T315I (stably expressing ABL-T315I kinase), BaF3-FL-BRAF-V600E (stably expressing BRAF-V600E kinase), BaF3-TEL-cKIT (stably expressing cKIT kinase), BaF3-TEL-VEGFR2 (stably expressing VEGFR2 kinase), BaF3-TEL-FGFR2 (stably expressing FGFR2 kinase) were also used. The above-mentioned cell trains were all constructed in our laboratory by the method as follows. The sequences of human BCR-ABL (P210 or P210/T315I mutated), full-length BRAF-V600E, cKIT, VEGFR2, FGFR2, PDGFRα, PDGFRβ kinase region were amplified respectively via PCR, and inserted respectively into a MSCV-Puro vector (purchased from Clontech) having a N-terminal TEL fragment and/or NPM fragment and/or TPR fragment, and stably transferred into mouse BaF3 cells by the retroviral method, and the growth factor IL-3 was removed. Eventually, cell lines which are transferred into proteins depending on PDGFRα, PDGFRβ were obtained.
(§2) In this example, solutions of the test compound at different concentrations (0.000508 μM, 0.00152 μM, 0.00457 μM, 0.0137 μM, 0.0411 μM, 0.123 μM, 0.370 μM, 1.11 μM, 3.33 μM, 10 μM) were added to the above cells. The cells were incubated for 72 hours.
Background: ATP-based viability assays read luminescence as a measure of living cells.

The subject of experiment [2] is BaF3-tel-PDGFRα (stably expressing PDGFRα kinase). Put plainly: Growth of BaF3-tel-PDGFRα cells, Cell Titer-Glo, 72 h.
From the text: as §1, §2

Experiment [3] deals with BaF3-P210 (stably expressing ABL kinase; BCR-ABL P210). Kind of experiment: Growth of BaF3-P210 cells, Cell Titer-Glo, 72 h.
From the text: as §1
(§3) In this example, solutions of the test compound at different concentrations (0.000508 μM, 0.00152 μM, 0.00457 μM, 0.0137 μM, 0.0411 μM, 0.123 μM, 0.370 μM, 1.11 μM, 3.33 μM, 10 μM) were added to the above cells. […]

Experiment [4] has as its system BaF3-P210-T315I (stably expressing ABL-T315I kinase). Kind of experiment: Growth of BaF3-P210-T315I cells, Cell Titer-Glo, 72 h.
From the text: as §1, §3

For experiment [5], the target named is T1, BaF3-FL-BRAF-V600E (stably expressing BRAF-V600E kinase) (Homo sapiens, UniProt P15056, V600E).
T1 construct: human BCR-ABL (P210 or P210/T315I mutated), full-length BRAF-V600E; expressed in transfected cells; host or cells: mouse BaF3, retroviral MSCV-Puro
T1 sequence (P15056 whole entry V600E): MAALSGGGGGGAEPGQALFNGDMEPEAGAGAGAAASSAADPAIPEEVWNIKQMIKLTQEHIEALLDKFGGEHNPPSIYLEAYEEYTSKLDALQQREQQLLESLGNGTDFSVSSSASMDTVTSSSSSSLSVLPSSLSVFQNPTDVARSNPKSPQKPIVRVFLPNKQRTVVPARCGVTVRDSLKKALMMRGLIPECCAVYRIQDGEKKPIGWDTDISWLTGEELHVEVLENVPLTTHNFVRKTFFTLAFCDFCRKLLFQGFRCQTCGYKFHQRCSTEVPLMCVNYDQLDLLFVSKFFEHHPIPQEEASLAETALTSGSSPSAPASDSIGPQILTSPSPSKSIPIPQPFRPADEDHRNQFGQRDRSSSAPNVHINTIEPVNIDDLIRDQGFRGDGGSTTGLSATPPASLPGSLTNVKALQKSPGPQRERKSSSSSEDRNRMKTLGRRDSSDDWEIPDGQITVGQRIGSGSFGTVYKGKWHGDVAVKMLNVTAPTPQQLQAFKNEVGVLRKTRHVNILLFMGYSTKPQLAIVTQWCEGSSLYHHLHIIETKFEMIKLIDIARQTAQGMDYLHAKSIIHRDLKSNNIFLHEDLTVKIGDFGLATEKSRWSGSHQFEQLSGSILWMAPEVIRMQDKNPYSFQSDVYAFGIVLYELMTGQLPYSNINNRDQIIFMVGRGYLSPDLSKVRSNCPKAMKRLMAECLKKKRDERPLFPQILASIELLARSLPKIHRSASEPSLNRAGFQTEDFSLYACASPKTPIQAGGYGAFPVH
Put plainly: Growth of BaF3-FL-BRAF-V600E cells, Cell Titer-Glo, 72 h.
From the text: as §1, §3

The subject of experiment [6] is BaF3-TEL-VEGFR2 (stably expressing VEGFR2 kinase). Put plainly: Growth of BaF3-TEL-VEGFR2 cells, Cell Titer-Glo, 72 h.
From the text: as §1, §3

For experiment [7], the system named is BaF3-TEL-FGFR2 (stably expressing FGFR2 kinase). Put plainly: Growth of BaF3-TEL-FGFR2 cells, Cell Titer-Glo, 72 h.
From the text: as §1, §3

A word on the GI50: it is the concentration that inhibits growth by half. A high value points to lower sensitivity of the cells. Regarding `Cc1ccc(NC(=O)c2cccc(C(F)(F)F)n2)cc1-n1cc(-c2cncc(N3CCN(C)CC3)c2)cn1` [Compound 1, N-(4-methyl-3-(4-(5-(4-methylpiperazin-1-yl)pyridin-3-yl)-1H-pyrazol-1-yl)phenyl)-6-(trifluoromethyl)picolinamide], the 50% growth inhibitory concentration (GI50) is 0.43 µM in experiment [1]; 0.056 µM in experiment [2]; over 10 µM in experiment [3] (BaF3-P210 cells, 72 hours); 5.16 µM in experiment [4] (BaF3-P210-T315I cells, 72 hours); 4.7 µM in experiment [5] (BaF3-FL-BRAF-V600E cells, 72 hours); 4 µM in experiment [6] (BaF3-TEL-VEGFR2 cells, 72 hours). The molecule also came in with a 50% growth inhibitory concentration (GI50) in experiment [7] (BaF3-TEL-FGFR2 cells, 72 hours) of 3.26 µM. Moreover, the “inhibitory effect against ABL (in words)” value in experiment [3] (summary of Table 2) was “no inhibitory effect, or a relatively weak inhibitory effect”. The “inhibitory effect against ABL-T315I (in words)” value in experiment [4] (summary of Table 2) is on record as “no inhibitory effect, or a relatively weak inhibitory effect”. In addition, the “inhibitory effect against BRAF-V600E (in words)” value in experiment [5] (summary of Table 2) is on record as “no inhibitory effect, or a relatively weak inhibitory effect”. Besides, the “inhibitory effect against VEGFR2 (in words)” value in experiment [6] (summary of Table 2) is “no inhibitory effect, or a relatively weak inhibitory effect”. The “inhibitory effect against FGFR2 (in words)” value in experiment [7] (summary of Table 2) is “no inhibitory effect, or a relatively weak inhibitory effect”.
